Test systems include A498 renal; CCRF-CEM leukemia; HOP-62 NSCLC; HT29 colon; MALME-3M melanoma; MDA-MB-435; MDA-N; NCI-H23 lung; RPMI-8226 leukemia; SNB-19 CNS.
Assay in all cases: growth of human tumour cells (NCI), 48 h

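These data come from cells grown in 96-well plates and exposed to compound for 48 hours at five concentrations. The concentration for full growth arrest is given as TGI.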

`O=C1CCCC1C(O)(C(F)(F)Cl)C(F)(F)Cl` (stereo unspecified): the TGI in the assay on A498 renal, in the assay on CCRF-CEM leukemia, in the assay with HOP-62 NSCLC, in the assay with HT29 colon, in the assay with MALME-3M melanoma and in the assay on MDA-MB-435 was over 10 µM each time. The TGI in the assay on MDA-N, in the assay on NCI-H23 lung, in the assay on RPMI-8226 leukemia and with SNB-19 CNS was over 10 µM each time.

Turning to `COc1ccc(/C=C/C(=O)N[C@@H]2C(=O)N3[C@@H]2SC(C)(C)[C@@H]3C(=O)O)cc1OC`, the TGI in the assay on A498 renal, in the assay with CCRF-CEM leukemia, with HOP-62 NSCLC, with HT29 colon, in the assay on MDA-MB-435 and with MDA-N was over 100 µM in each case. Also, the TGI in the assay with NCI-H23 lung, with RPMI-8226 leukemia and with SNB-19 CNS was over 100 µM in each case.

For the compound `ClC1(Cl)C2CCOC21n1cnc2ccccc21` (stereo unspecified), the TGI in the assay on CCRF-CEM leukemia, with HOP-62 NSCLC, in the assay on HT29 colon, in the assay with MALME-3M melanoma, with MDA-MB-435 and in the assay on MDA-N was over 100 µM in each case. In addition, the TGI in the assay on NCI-H23 lung, in the assay with RPMI-8226 leukemia and in the assay on SNB-19 CNS was over 100 µM in each case.

With `CCOC(=O)CCNC(=O)c1cc(C)cc2c1Oc1c(cc(C)cc1C(=O)NCCC(=O)OCC)S2`, the TGI with A498 renal was 90.8 µM; in the assay with CCRF-CEM leukemia, over 100 µM; in the assay with HOP-62 NSCLC, over 100 µM; with HT29 colon, over 100 µM; with MALME-3M melanoma, over 100 µM; in the assay with MDA-MB-435, over 100 µM. In addition, the TGI with MDA-N, in the assay on NCI-H23 lung, with RPMI-8226 leukemia and in the assay on SNB-19 CNS was over 100 µM throughout.

Regarding `CC(C)[Si](CC1=CCCCC12C(=O)N(COCC[Si](C)(C)C)c1ccccc12)(C(C)C)C(C)C` (stereo unspecified), the TGI with A498 renal was over 100 µM; in the assay with CCRF-CEM leukemia, 36.6 µM; in the assay with HOP-62 NSCLC it was over 100 µM; in the assay on HT29 colon, over 100 µM; with MALME-3M melanoma it was over 100 µM; in the assay on MDA-MB-435, over 100 µM. Besides, the TGI in the assay on MDA-N, in the assay with NCI-H23 lung, with RPMI-8226 leukemia and in the assay on SNB-19 CNS was over 100 µM throughout.

As to `Cc1nc2c(ccc3[nH]c4ccccc4c32)s1`, the TGI in the assay on A498 renal was 34.9 µM; in the assay on CCRF-CEM leukemia, over 100 µM; in the assay with HOP-62 NSCLC, 40 µM; in the assay on HT29 colon, 31.3 µM; in the assay on MALME-3M melanoma, over 100 µM; in the assay on MDA-MB-435, 64.7 µM. The figures for the TGI with MDA-N, with NCI-H23 lung and with SNB-19 CNS were over 100 µM, 91.7 µM and over 100 µM, respectively.

Consider `CC1(C)C/C=C\CCC(O)C(O)CCC(C)(C)C1=O` (stereo unspecified), for which the TGI in the assay with A498 renal, in the assay on CCRF-CEM leukemia, in the assay with HOP-62 NSCLC, in the assay with HT29 colon, in the assay on MALME-3M melanoma and in the assay with MDA-MB-435 was over 100 µM throughout. Moreover, the TGI in the assay on MDA-N, in the assay with NCI-H23 lung, with RPMI-8226 leukemia and with SNB-19 CNS was over 100 µM each time.

On to `O=C1CSC2(CC(/C=C/c3ccccc3[N+](=O)[O-])=NN2c2cccc(S(=O)(=O)O)c2)N1c1nc2ccccc2s1` (stereo unspecified), for which the TGI is 38.7 µM in the assay with A498 renal; 43.5 µM in the assay on CCRF-CEM leukemia; 69.1 µM in the assay on HT29 colon; over 75 µM in the assay on MALME-3M melanoma; 28.1 µM with MDA-MB-435; 50.6 µM in the assay with MDA-N. Moreover, the TGI in the assay with NCI-H23 lung amounted to 34.4 µM; in the assay on RPMI-8226 leukemia, 43.5 µM; in the assay on SNB-19 CNS it was 35.1 µM.

With `CNC(=S)c1nnsc1N`, the TGI in the assay with A498 renal, in the assay on CCRF-CEM leukemia, in the assay on HOP-62 NSCLC, with MALME-3M melanoma, in the assay on MDA-MB-435 and with MDA-N was over 100 µM each time. For the same compound, the TGI with NCI-H23 lung and with RPMI-8226 leukemia was over 100 µM each time.

Take `Cc1c(OCc2cccc3ccccc23)ccc2c(=O)cc(S)oc12`: the TGI with A498 renal was over 100 µM; in the assay on CCRF-CEM leukemia, 54.1 µM; in the assay on HOP-62 NSCLC, over 100 µM; in the assay with HT29 colon it was over 100 µM; in the assay with MDA-MB-435 it was 98.6 µM; with MDA-N it was over 100 µM. Also, the TGI with NCI-H23 lung was 80.7 µM; in the assay on SNB-19 CNS it was over 100 µM.

In the case of `COC(=O)Cc1c(-c2c(CC(=O)OC)c3ccccc3n2C2OC(COC3OC(COC(C)=O)C(OC(C)=O)C(OC(C)=O)C3OC(C)=O)C(O)C(O)C2O)[nH]c2ccccc12` (stereo unspecified), the TGI in the assay with A498 renal is over 100 µM; with CCRF-CEM leukemia, over 100 µM; in the assay with HOP-62 NSCLC it was 70.9 µM; in the assay with HT29 colon, over 100 µM; in the assay on MDA-MB-435 it was over 100 µM; in the assay with MDA-N, over 100 µM. Besides, the TGI is over 100 µM with NCI-H23 lung, over 100 µM in the assay with RPMI-8226 leukemia and 60 µM in the assay on SNB-19 CNS.

Turning to `COc1ccc2oc(=O)c(-c3nc4ccccc4s3)cc2c1`, the TGI was 54.2 µM with A498 renal; over 75.6 µM in the assay on CCRF-CEM leukemia; over 48.1 µM with HOP-62 NSCLC; 33.1 µM in the assay on HT29 colon; 28.2 µM with MALME-3M melanoma; over 47.1 µM in the assay with MDA-MB-435. In addition, the TGI is over 67.2 µM with MDA-N, over 63.9 µM in the assay with NCI-H23 lung, over 100 µM in the assay on RPMI-8226 leukemia and over 100 µM with SNB-19 CNS.

Turning to `O=C1CN2CCN(CC2)CC(=O)Nc2ccc(cc2)S(=O)(=O)c2ccc(cc2)NC(=O)CN2CCN(CC2)CC(=O)Nc2ccc(cc2)S(=O)(=O)c2ccc(cc2)N1`, the TGI with A498 renal is over 100 µM; with CCRF-CEM leukemia, 1.81 µM; in the assay on HOP-62 NSCLC, over 93.6 µM; in the assay with HT29 colon, 51 µM; with MALME-3M melanoma it was 38.8 µM; in the assay with MDA-MB-435 it was over 89.7 µM. The TGI was over 100 µM with MDA-N, over 90.4 µM in the assay with NCI-H23 lung, over 80.8 µM with RPMI-8226 leukemia and over 100 µM in the assay on SNB-19 CNS.

Consider `CCOC(=O)C1=CN(Cc2ccccc2)C2ON=C(c3ccc(Cl)cc3)C2C1` (stereo unspecified), for which the TGI with A498 renal is over 56.8 µM; in the assay with CCRF-CEM leukemia, over 100 µM; with HOP-62 NSCLC, over 67.7 µM; in the assay with HT29 colon it was over 71.4 µM; in the assay with MALME-3M melanoma, over 71.8 µM; with MDA-MB-435, over 79.5 µM. For the same compound, the TGI in the assay on MDA-N was over 68.9 µM; with NCI-H23 lung, over 66.8 µM; with RPMI-8226 leukemia, over 100 µM; in the assay with SNB-19 CNS, over 100 µM.

Source of the values: PubChem BioAssay (NCI).
